Measured values: patent publication US9988371B2, “Benzimidazole analogues and related methods” (The Arizona Board of Regents, on Behalf of the University …, priority 2014, dated 2018)

How the values were obtained:
pMAPK = pMAPK immunoblot in TT cells; type: cell-based, human; conditions: 1 nM
Protocol: FIG. 3: Photographs of blots showing inhibition of RET protein endogenously expressed in TT cells (human MTC cell line expressing RET/C634W) by indicated concentrations of Pz-1 or vehicle (NT: not treated) and reduced effects in thyroid non-transformed Nthy-ori-3-1 cells. Serum-starved human TT and thyroid non-transformed Nthy-ori-3-1 cell lines were treated for 2 hr with indicated concentrations of Pz-1. 50 μg of total cell lysates were subjected to immunoblotting with anti-phospho-Y1062 (αp1062) and anti-phospho-905 (αpY905) RET antibodies, anti-phospho-MAPK (αpMAPK, T302/Y304), and anti-phospho-SHC (αpSHC, Y317) antibodies. The blots were normalized using anti-RET (αRET) and anti-SHC (αSHC).
The inhibition of RET auto-phosphorylation by Pz-1 was measured in several different cell lines including NIH3T3 fibroblasts expressing RET/C634Y or RET/M918T, TT expressing RET/C634W (MTC), Nthy-ory-3-1 (thyroid, non-transformed with RET; negative control), HEK293/RET/PTC1 (CCDC6-RET that can be found in PTC & lung cancer), HEK293/RET-KIF5B (that can be found in lung cancer), HEK293/RET/PTC3 (NCOA4-RET, that can be found in PTC & lung cancer), and HEK293 transfected with RET/C634R-V804M (FIGS. 1-3). […]
Protein lysates were prepared according to standard procedures. […] Immune complexes were detected with the enhanced chemiluminescence kit (Amersham Pharmacia Biotech, Little Chalfort, UK). […]

RET/C634Y = biological target: T1, RET/C634Y (Homo sapiens, UniProt P07949, C634Y); assay: In vivo target inhibition, RET phosphorylation and signaling in RET/C634Y-induced tumors; set-up: species or system nude mice; conditions: 48 hr, 1.0 or 3.0 mg/kg daily
T1 construct: expressed in transfected cells; host or cells: NIH3T3 fibroblasts, grown as tumours in BALB/c nu/nu mice
T1 sequence (P07949 29-1072 isoform P07949-2 C634Y limits assumed): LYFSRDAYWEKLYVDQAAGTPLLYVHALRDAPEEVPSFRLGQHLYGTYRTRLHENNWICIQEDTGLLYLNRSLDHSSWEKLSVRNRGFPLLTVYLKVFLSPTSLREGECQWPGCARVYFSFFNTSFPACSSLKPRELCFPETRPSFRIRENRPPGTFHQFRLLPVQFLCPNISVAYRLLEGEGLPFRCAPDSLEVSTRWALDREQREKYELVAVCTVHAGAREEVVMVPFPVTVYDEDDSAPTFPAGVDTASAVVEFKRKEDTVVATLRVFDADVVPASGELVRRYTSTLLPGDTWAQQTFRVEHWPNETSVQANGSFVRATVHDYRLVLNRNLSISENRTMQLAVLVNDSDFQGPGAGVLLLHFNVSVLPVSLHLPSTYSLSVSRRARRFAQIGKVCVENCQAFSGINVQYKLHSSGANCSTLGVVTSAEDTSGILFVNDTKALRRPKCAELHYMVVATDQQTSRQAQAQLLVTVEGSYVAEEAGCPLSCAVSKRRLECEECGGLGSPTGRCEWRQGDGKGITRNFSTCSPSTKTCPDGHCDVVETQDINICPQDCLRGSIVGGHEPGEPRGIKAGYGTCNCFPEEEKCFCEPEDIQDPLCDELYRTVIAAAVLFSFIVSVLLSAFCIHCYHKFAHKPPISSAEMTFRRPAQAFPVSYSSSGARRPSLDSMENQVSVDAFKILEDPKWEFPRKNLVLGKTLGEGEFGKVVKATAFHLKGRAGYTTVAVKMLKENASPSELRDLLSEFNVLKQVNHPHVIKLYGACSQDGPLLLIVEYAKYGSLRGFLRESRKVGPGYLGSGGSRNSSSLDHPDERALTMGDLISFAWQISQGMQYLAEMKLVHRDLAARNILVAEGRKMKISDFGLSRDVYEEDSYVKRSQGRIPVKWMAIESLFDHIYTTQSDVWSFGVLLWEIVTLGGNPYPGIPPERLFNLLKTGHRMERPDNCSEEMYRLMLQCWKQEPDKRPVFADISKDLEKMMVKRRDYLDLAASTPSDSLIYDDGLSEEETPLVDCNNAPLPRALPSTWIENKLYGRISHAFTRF
Protocol: FIG. 9: Photographs of blots showing effects of Pz-1 on cellular phosphorylation events in tumors induced in nude mice (from FIG. 8) by injection of NIH3T3 fibroblasts transformed by RET/C634Y or HRAS/G12V. […] Some of the vehicle-treated tumors, at the end of the tumor growth experiment described in FIG. 8, were treated for 48 hr with different doses of Pz-1 (TR) or left untreated (NT). At the end of the treatment, 50 μg of tumor protein lysates were subjected to immunoblotting with anti-phospho-Y1062 (αp1062) and anti-phospho-905 (αpY905) RET antibodies, anti-phospho-MAPK (αpMAPK, T302/Y304), anti-phospho-SHC (αpSHC, Y317), anti-phospho-p70S6K (αpp70S6K, T389), anti-phospho-S6RP (αpS6RP, S235/S236), and anti-phospho-VEGFR2 (αpVEGFR2 pY1175) antibodies. The blots were normalized using anti-RET (αRET), anti-SHC (αSHC), anti-MAPK (αMAPK), anti-p70S6K (αp70S6K), anti-S6RP (αS6RP) or anti-VEGFR2 (αVEGFR2) antibodies.
Some of the vehicle-treated tumors, at the end of the tumor growth experiment reported in FIG. 8, were treated for 48 hr with different doses of Pz-1 (1.0 or 3.0 mg/kg daily) or left untreated. […]

Cn1cc(-c2ccc3c(c2)ncn3-c2ccc(CC(=O)Nc3cc(C(C)(C)C)on3)cc2)cn1 [Pz-1, N-(5-(tert-butyl)isoxazol-3-yl)-2-(4-(5-(1-methyl-1H-pyrazol-4-yl)-1H-benzo[d]imidazol-1-yl)phenyl)acetamide]
inhibition of pMAPK (pMAPK): strongly inhibited | RET phosphorylation and intracellular signaling (SHC, MAPK, p70S6K and S6RP) in tumors (RET/C634Y): inhibited
